Laboratory results from article doi:10.1101/2020.08.07.241463v2 (biorxiv, 2020).
pKd: −log10 of the molar value.

Target: T1, OpuAC (free / soluble substrate-binding domain) (Lactococcus lactis, UniProt Q7DAU8, N367C/N423C)
T1 sequence (Q7DAU8 320-573 N367C/N423C): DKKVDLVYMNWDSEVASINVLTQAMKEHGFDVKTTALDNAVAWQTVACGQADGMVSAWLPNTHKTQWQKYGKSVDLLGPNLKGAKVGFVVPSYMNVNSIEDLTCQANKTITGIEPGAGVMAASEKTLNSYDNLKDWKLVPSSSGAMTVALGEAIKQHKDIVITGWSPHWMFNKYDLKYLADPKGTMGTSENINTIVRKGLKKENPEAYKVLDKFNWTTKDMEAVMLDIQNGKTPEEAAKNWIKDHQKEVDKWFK
Test: smFRET

`C[N+](C)(C)CC(=O)[O-]` [GB, glycine betaine] was tested, and the pKd was about 5.22.
